Here are results for 1 compound from patent US4983740A, “Process for 1,4-dihydropyridine compounds” (Adir et Compagnie, priority 1986, dated 1991).

The target in test [1] is isolated rabbit mesenteric artery (Oryctolagus cuniculus, UniProt P15381). Briefly: Study on isolated rabbit mesenteric artery contracted with calcium. It counts as cell-based, rabbit (New Zealand). Conditions: compound of example 50 versus its racemate. The procedure: Study on Isolated Rabbit Mesenteric Artery Contracted with Calcium
This test is performed on organs removed from male New Zealand rabbits weighing 2.5 to 3 kg, subjected to a water regimen for 18 hours before sacrifice.
After the animal is rapidly sacrificed, the mesenteric artery is removed and dissected into rings 2 mm long; the endothelium is removed mechanically.
After a stabilization period of 90 minutes, the preparations are subjected to a depolarizing medium (35 mM KCl) without calcium (0.1 mM EGTA) for 15 minutes.
A control series is prepared by adding cumulative doses of calcium to the bath every 6 minutes until a maximum of effect is produced. The preparations are then rinsed for a period of 15 minutes and the product is incubated for one hour before renewal of the calcium series.
A single concentration of the product is tested per organ.
The responses obtained in the presence of product are expressed as a percentage of the maximal value of the control series.
The pD'2 value is calculated according to the method of Van Rossum (1963).

For test [2], the system named is unanesthetized spontaneously hypertensive rats (SHR). Put plainly: Study in unanesthetized spontaneously hypertensive rats (intravenous, systolic blood pressure). The format is in vivo, rat (SHR). The procedure:
Study in Unanesthetized Spontaneously Hypertensive Rats (SHR)
SHR male rats weighing 280 to 350 g and aged from 18 to 24 weeks are anaesthetized with imalgene® (150 mg/kg i.p.). Two polyethylene catheters are introduced, one into the abdominal aorta for the recording of hemodynamic parameters and the other into the jugular vein for the administration of the products. The catheters are taken through to neck level. The animals are used at least 48 hours after surgical intervention.
The systolic and diastolic abdominal bood pressures are recorded by means of a Statham P23XL transducer on a Gould ES 1000 recorder. The products are administered intravenously in a volume of 0.5 ml/kg. The doses administered of the test compounds are expressed in mg/kg of base. The blood pressure is recorded in continuous fashion up to 6 hours after the treatment.
The changes in systolic blood pressure after treatment are recorded in Table VIII.

Test [3] deals with T1, dihydropyridine site associated with the calcium slow channel (Rattus norvegicus, UniProt Q02485).
T1 construct: microsomal membrane preparations prepared from skeletal muscle of rat (Wistar) hind limbs; from tissue; host or cells: skeletal muscle of rat (Wistar) hind limbs, microsomal fraction
Briefly: Affinity for the dihydropyridine binding site, displacement of [3H]-PN 200-110. On the set-up: species or system rat (Wistar). Here is the method: Affinity for the Dihydropyridine Binding Site
This study was carried out on microsomal membrane preparations prepared from skeletal muscle of rat (Wistar) hind limbs.
The rats are killed by decapitation. The skeletal muscles are removed and washed in buffer I (20 mM MOPS/KOH pH 7.4, 0.3M sucrose, 1 mM EDTA, 0.1 mM iodoacetamide, 1 μM pepstatin A, 1 mg/l leupeptin and 0.1 μM PMSF). The muscles are then mechanically fragmented, taken up in 4 volumes of buffer I per gramme of tissue and homogenized.
The homogenate is then centrifuged for 10 minutes at 3,200 g, the pellets are removed and the supernatants are then centrifuged for 20 minutes at 15,000 g, and the supernatants are stirred for 15 minutes at 4° C. in buffer I containing 0.6M final KCl and then centrifgued for 45 minutes at 70,000 g.
The pellets are taken up in buffer I and homogenized in a Potter. The homogenates are centrifuged at 100,000 g for 45 minutes and the pellets thereby obtained correspond to the microsomal fraction used for the studies of binding and displacement.
The activity of the product is assessed by the displacement of [^3 H]-PN 200-110, bound specifically to its receptor associated with the calcium slow channel, by increasing concentrations of the test products. The value obtained (K0.5) for each of the products, which represents the concentration of the product displacing 50% of the [^3 H]-PN 200-110, permits calculation of a true dissociation constant (KI): [formula] where [L*] is the concentration of free [^3 H]-PN 200-110 and Kd the dissociation constant at equilibrium of the [^3 H]-PN 200-110 complex, determined by direct binding.
The KI values of the two products are recorded in Table VI
For orientation: Loss of bound radioactivity is the signal in a displacement assay; it reports binding, not function.

T1 sequence (Q02485 whole entry): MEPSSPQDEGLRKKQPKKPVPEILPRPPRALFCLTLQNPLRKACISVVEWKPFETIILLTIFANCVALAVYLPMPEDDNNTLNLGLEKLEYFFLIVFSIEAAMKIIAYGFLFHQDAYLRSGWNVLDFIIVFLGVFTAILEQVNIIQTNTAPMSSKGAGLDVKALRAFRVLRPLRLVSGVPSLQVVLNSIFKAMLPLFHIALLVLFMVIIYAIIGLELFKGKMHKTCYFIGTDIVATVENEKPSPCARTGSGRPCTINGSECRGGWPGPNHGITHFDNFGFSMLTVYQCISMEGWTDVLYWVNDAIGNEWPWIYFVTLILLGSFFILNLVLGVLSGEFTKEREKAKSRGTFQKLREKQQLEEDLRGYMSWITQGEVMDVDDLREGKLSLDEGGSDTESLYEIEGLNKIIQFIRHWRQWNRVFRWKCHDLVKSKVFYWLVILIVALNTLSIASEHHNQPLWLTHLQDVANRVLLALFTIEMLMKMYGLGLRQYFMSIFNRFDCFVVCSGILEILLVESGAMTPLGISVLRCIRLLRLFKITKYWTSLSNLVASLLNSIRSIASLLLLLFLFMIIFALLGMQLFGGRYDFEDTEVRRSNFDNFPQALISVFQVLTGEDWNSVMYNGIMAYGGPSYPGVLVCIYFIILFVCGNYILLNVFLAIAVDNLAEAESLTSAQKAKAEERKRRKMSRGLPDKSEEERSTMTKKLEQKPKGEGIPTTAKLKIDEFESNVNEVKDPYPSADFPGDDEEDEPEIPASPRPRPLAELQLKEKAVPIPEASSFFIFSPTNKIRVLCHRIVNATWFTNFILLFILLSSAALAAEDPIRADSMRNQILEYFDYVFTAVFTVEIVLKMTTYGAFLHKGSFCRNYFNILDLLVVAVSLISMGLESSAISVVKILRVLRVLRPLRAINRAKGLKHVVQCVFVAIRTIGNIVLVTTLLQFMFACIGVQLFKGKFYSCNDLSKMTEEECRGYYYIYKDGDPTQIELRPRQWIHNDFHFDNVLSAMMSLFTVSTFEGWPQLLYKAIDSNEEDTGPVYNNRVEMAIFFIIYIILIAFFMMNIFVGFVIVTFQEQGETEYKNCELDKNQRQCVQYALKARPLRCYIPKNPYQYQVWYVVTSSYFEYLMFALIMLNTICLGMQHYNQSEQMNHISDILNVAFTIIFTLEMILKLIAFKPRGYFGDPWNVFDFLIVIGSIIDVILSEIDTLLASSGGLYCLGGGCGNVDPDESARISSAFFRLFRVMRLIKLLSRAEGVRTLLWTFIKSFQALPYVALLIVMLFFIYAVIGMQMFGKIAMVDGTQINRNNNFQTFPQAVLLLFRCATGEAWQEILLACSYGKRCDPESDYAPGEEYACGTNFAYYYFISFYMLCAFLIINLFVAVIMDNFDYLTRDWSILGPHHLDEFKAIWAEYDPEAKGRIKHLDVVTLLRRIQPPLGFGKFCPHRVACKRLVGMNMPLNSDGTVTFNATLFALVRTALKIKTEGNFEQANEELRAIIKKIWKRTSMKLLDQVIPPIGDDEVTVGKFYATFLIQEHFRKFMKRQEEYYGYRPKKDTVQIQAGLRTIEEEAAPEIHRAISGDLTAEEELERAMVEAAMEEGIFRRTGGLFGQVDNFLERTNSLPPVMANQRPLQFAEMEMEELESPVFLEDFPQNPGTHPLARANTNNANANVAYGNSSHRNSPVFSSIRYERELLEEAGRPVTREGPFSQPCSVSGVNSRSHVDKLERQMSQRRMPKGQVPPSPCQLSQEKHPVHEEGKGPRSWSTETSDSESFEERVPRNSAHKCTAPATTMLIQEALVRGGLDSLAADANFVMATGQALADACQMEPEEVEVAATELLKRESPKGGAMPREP
T1 sequence (P54290 25-945 partner limits assumed): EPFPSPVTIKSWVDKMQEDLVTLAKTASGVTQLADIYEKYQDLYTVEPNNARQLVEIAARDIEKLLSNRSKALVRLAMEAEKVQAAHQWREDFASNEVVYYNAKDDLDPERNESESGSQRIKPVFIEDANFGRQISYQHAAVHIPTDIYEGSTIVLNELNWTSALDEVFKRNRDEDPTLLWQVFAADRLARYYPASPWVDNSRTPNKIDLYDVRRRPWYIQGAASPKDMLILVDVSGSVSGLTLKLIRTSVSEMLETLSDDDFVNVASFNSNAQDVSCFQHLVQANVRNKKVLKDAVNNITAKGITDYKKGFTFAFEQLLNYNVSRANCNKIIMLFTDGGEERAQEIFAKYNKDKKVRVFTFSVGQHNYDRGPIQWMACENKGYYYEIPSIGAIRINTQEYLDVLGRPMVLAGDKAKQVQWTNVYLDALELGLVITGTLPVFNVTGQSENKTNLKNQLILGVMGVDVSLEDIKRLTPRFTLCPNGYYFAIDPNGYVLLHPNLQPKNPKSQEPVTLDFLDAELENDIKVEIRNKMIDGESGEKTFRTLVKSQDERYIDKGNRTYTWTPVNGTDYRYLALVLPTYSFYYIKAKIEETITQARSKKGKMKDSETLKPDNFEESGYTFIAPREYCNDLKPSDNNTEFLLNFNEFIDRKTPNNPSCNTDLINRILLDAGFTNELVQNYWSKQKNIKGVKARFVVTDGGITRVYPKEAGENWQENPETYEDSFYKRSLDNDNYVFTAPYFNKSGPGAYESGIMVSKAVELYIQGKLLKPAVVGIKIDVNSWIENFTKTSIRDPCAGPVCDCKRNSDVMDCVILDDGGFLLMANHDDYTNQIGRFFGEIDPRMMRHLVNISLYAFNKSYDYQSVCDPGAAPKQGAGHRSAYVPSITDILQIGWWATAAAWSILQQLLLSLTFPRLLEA
T1 sequence (P54290 946-1091 partner limits assumed): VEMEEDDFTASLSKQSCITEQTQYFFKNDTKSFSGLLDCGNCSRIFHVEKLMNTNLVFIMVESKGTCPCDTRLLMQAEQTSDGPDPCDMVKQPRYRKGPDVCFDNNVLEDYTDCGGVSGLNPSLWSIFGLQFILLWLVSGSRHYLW
T1 sequence (P54283 whole entry partner): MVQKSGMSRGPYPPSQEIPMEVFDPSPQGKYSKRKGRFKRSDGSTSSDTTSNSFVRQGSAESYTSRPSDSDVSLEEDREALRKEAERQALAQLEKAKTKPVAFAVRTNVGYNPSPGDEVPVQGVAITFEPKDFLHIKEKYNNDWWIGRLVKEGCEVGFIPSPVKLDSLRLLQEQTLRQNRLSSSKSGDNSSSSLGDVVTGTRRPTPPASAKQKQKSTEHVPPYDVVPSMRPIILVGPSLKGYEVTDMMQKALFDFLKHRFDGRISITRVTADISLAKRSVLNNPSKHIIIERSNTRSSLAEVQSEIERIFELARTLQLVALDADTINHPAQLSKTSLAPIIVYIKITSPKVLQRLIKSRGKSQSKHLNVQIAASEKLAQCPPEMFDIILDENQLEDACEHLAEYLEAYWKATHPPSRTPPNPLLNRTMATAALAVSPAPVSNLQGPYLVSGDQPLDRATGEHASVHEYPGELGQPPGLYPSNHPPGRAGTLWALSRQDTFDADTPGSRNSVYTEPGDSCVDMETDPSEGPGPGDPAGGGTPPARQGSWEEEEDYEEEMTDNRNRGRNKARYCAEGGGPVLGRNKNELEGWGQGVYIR
T1 sequence (P97707 whole entry partner): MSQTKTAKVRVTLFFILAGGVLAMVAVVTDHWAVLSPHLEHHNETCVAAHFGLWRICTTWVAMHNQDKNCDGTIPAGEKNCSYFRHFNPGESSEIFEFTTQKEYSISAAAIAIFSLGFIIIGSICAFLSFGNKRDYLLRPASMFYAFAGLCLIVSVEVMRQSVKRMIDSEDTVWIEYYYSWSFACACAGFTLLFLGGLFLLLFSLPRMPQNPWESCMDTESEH

Broadly, the Ki is a measure of affinity in units of concentration, obtained from inhibition or displacement. As for `CCOC(=O)C1=C(COCCOCCN)NC(C)=C(C(=O)OC)C1c1cccc(Cl)c1Cl` (single isomer, unassigned; (-)) [EXAMPLE 50, (-)-2-{[2-(2-Aminoethoxy)ethoxy]methyl}-4-(2,3-dichlorophenyl)-3-ethoxycarbonyl-5-methoxycarbonyl-6-methyl-1,4-dihydropyridine], the “superiority compared with its racemate in preventing a calcium-induced vascular contraction” value in test [1] is given as “more than double”. Moreover, the “Systolic blood pressure changes (ΔmmHg) after treatment, 1H 30 min” value in test [2] (0.1 mg/kg, intravenous, 1 h 30 min) is -16 ± 2 mmHg. The “Systolic blood pressure changes (ΔmmHg) after treatment, 3H” value in test [2] (0.1 mg/kg, intravenous, 3 h) is recorded as -18 ± 2 mmHg. Also, the “Systolic blood pressure changes (ΔmmHg) after treatment, 6H” value in test [2] (0.1 mg/kg, intravenous, 6 h) is -21 ± 5 mmHg. For the same compound, in test [2] (same dose, six hours after treatment, versus racemate), the “activity compared with its racemate six hours after treatment” value was “approximately 4 times”. In addition, in test [2] (versus racemate), the “activity compared with its racemate, in words” value is “more potent and sustained even better over a period of time”. The “affinity for the dihydropyridine sites compared with its racemate” value in test [3] (compound of example 50 versus its racemate) is recorded as 30 times. Moreover, in test [3] (displacement of [3H]-PN 200-110, microsomal membranes of rat skeletal muscle), the Ki was 0.28 ± 0.15 nM.
